Experimental findings from US20200385371A1 (Propellon Therapeutics Inc., priority 2017, published 2020) are described below.

The IC50 is the concentration that inhibits the measured activity by half. Read a low IC50 as greater potency in that assay. For orientation: Kd means a measure of binding affinity in units of concentration.

One assay concerns MV4-11 cells. Description: Cell proliferation assay (ATPlite). Type of assay: cell-based. Conditions: Homo sapiens, MV4-11; Table 2. The method, boiled down:
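Cells seeded at 1,000/well in Alpha-MEM with 10% FBS, treated with compound over a 10-point range (top 10 μM) or DMSO. Grown five days at 37° C, 5% CO2; viability by ATPlite luminescence.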
For orientation: In ATP-based viability assays light output follows the ATP content of the culture.

Another assay has as its target WDR5 (Homo sapiens, UniProt P61964). Nature of the assay: Surface Plasmon Resonance (SPR) assay. Type of assay: binding. Also on record: Full length WDR5 with an N-terminal His tag and C-terminal AviTag; His tag (N); made in house; host or cells: E. coli. To be noted: Table 2, effect of difluoro substitution; read-out: KD (SPR). The method, boiled down: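 Full-length biotinylated WDR5 (N-His, C-AviTag, E. coli) captured (~3000 RU) on streptavidin SA chip; Biacore T200. HBS-EP pH 7.4 plus 5% DMSO running buffer, 40 μl/min.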

The target in another assay is T1, MLL1-WRAD2 complex (Homo sapiens, UniProt P61964).
T1 construct: His tag (N); made in house; host or cells: E. coli
Description: MLL1-WRAD2 enzyme assay (HMT). Type of assay: biochemical. The method, then: Specifically, recombinant human MLL1 (aa 3745-3969, GenBank Accession No. NM_005933), WDR5 (aa 22-334, GenBank Accession No. NM_017588), RbBP5 (aa 1-538, GenBank Accession No. NM_005057), Ash2L (aa 2-534, GenBank Accession No. NM_001105214), and DPY-30 (aa 1-99, GenBank Accession No. NM_0325742), all with N-terminal His tag, are expressed in E. coli and mixed at a molar ratio of 1:1:1:1:2. 10 nM of the assembled MLL1-WRAD2 complex is mixed with 100 nM WRAD2 to enhance complex formation before incubation with 0.05 mg/ml nucleosome substrate and compounds (as 10 point duplicate dose response titrations) for 15 min in a buffer consisting of 50 mM Tris (pH 8.5), 5 mM MgCl2, 50 mM NaCl, 1 mM DTT, 0.01% Brij-35, and 1% DMSO. Reaction is initiated with 1 μM 3H-SAM and incubated for 1 hour at 30° C. Reaction mixture is transferred to P81 filter-paper and washed with PBS before detection.

Molecules are shown by their SMILES.

Turning to `C[C@@H]1CN(c2cc(F)c(-c3cnc(N4CCOCC4)nc3)c(F)c2NC(=O)c2c[nH]c(=O)cc2C(F)(F)F)C[C@H](C)N1C` [drawing 479, reference compound], the IC50 with MV4-11 cells is 30 nM; at MLL1-WRAD2 complex (Table 2), 63 nM. Moreover, the Kd at WDR5 amounted to 3.7 nM.
For `C[C@@H]1CN(c2ncc(-c3cc(NC(=O)c4c[nH]c(=O)cc4C(F)(F)F)c(N4C[C@@H](C)N(C)[C@@H](C)C4)cc3F)cn2)C[C@H](C)O1` [reference compound], at WDR5, the Kd came out at 0.4 nM. Besides, the IC50 against MLL1-WRAD2 complex (Table 2, no unit printed in the cell) came out at 150 nM.
In the case of `C[C@@H]1CN(c2ccc(-c3cnc(N4CCOCC4)nc3)c(F)c2NC(=O)c2c[nH]c(=O)cc2C(F)(F)F)C[C@H](C)N1C` [reference compound], the Kd at WDR5 is 1.1 nM. In addition, at MLL1-WRAD2 complex (Table 2), 154 nM corresponded to half-maximal inhibition (IC50).
Turning to `C[C@@H]1CN(c2ncc(-c3c(F)cc(N4C[C@@H](C)N(C)[C@@H](C)C4)c(NC(=O)c4c[nH]c(=O)cc4C(F)(F)F)c3F)cn2)C[C@H](C)O1` [drawing 478, reference compound], the IC50 in the assay on MV4-11 cells is 31 nM; against MLL1-WRAD2 complex (Table 2), 41 nM. In addition, at WDR5, the dissociation constant Kd came out at 1.8 nM.
